Source: patent publication US8987195B2 (priority 2012, dated 2015)
Read-outs that look alike come from different tables or passages of the source.

Assays:
[1] = molecular target: HCV NS3/4A protease genotype 1b (Hepatitis C virus genotype 1b, UniProt P26663); assay: HCV NS3/4A protease time-resolved fluorescence (TRF) assay, Ki against genotype 1b; type: biochemical; settings: IC50 [gt-1b], NS3/4A protease TRF assay, genotype 1b enzyme 0.2 nM
Summary of the method: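 Enzyme 0.2 nM 1b / 0.4 nM A156T / 0.025 nM 3a; 30 min preinc. w/ cpd; 25 nM TRF peptide; 2.5 h RT; ex 340/em 615 time-delayed; 4-param IC50 → Ki = IC50/(1+[S]/KM).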

HCV genotype 1b replicon = assay: HCV replicon assay, genotype 1b replicon EC50; type: cell-based, Hepatitis C virus; settings: Hepatitis C virus, HCV replicon, genotype 1b, read-out: EC50 [gt-1b]
Summary of the method: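 Stable neomycin-selected genotype 1b replicon cells, some carrying luciferase:Neo^r fusion, plated without G418 with a compound dilution series and incubated 24-48 h. Read-out was RNA (^32P-probe protection or TaqMan, normalized to cyclophilin A) or luciferase activity. EC50 from four-parameter fit as percent of DMSO control.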

SMILES	IC50 [1] [nM]	EC50 (HCV genotype 1b replicon) [nM]	IC50 ([1]; K+ salt) [nM]	EC50 (HCV genotype 1b replicon; K+ salt) [nM]
COCCOc1ccc2nc(C)c3c(c2c1)CC[C@]1(C[C@H]2C(=O)N[C@]4(C(=O)NS(=O)(=O)C5(C)CC5)C[C@H]4/C=C\CCCCC[C@H](NC(=O)OCC(C)C)C(=O)N2C1)O3 [Example 411, 2-methylpropyl [(2R,6S,12Z,13aS,14aR,16aS)-9′-(2-methoxyethoxy)-5′-methyl-14a-{[(1-methylcyclopropyl)sulfonyl]carbamoyl}-5,16-dioxo-1,1′,2′,5,6,7,8,9,10,11,13a,14,14a,15,16,16a-hexadecahydrospiro[cyclopropa[e]pyrrolo[1,2-a][1,4]diazacyclopentadecine-2,3′-pyrano[2,3-c]quinolin]-6-yl]carbamate]	0.064	5.77	–	–
COc1ccc2nc(C3CC3)c3c(c2c1)CC[C@]1(C[C@H]2C(=O)N[C@]4(C(=O)NS(=O)(=O)C5(C)CC5)C[C@H]4/C=C\CCCCC[C@H](NC(=O)O[C@@H](C)C(C)C)C(=O)N2C1)O3 [Example 412, (2S)-3-methylbutan-2-yl [(2R,6S,12Z,13aS,14aR,16aS)-5′-cyclopropyl-9′-methoxy-14a-{[(1-methylcyclopropyl)sulfonyl]carbamoyl}-5,16-dioxo-1,1′,2′,5,6,7,8,9,10,11,13a,14,14a,15,16,16a-hexadecahydrospiro[cyclopropa[e]pyrrolo[1,2-a][1,4]diazacyclopentadecine-2,3′-pyrano[2,3-c]quinolin]-6-yl]carbamate]	–	–	0.038	1.42
COc1ccc2nc(C3CC3)c3c(c2c1)CC[C@]1(C[C@H]2C(=O)N[C@]4(C(=O)NS(=O)(=O)C5(C)CC5)C[C@H]4/C=C\CCCCC[C@H](NC(=O)O[C@H](C)C(C)C)C(=O)N2C1)O3 [Example 413, (2R)-3-methylbutan-2-yl [(2R,6S,12Z,13aS,14aR,16aS)-5′-cyclopropyl-9′-methoxy-14a-{[(1-methylcyclopropyl)sulfonyl]carbamoyl}-5,16-dioxo-1,1′,2′,5,6,7,8,9,10,11,13a,14,14a,15,16,16a-hexadecahydrospiro[cyclopropa[e]pyrrolo[1,2-a][1,4]diazacyclopentadecine-2,3′-pyrano[2,3-c]quinolin]-6-yl]carbamate]	–	–	0.021	2.53
Cc1nc2ccccc2c2c1O[C@]1(CC2)C[C@H]2C(=O)N[C@]3(C(=O)NS(=O)(=O)C4(C)CC4)C[C@H]3/C=C\CCCCC[C@H](Nc3cc(C(F)(F)F)ccn3)C(=O)N2C1 [Example 414, (2R,6S,12Z,13aS,14aR,16aS)-5′-methyl-N-[(1-methylcyclopropyl)sulfonyl]-5,16-dioxo-6-{[4-(trifluoromethyl)pyridin-2-yl]amino}-1,1′,2′,6,7,8,9,10,11,13a,14,15,16,16a-tetradecahydrospiro[cyclopropa[e]pyrrolo[1,2-a][1,4]diazacyclopentadecine-2,3′-pyrano[2,3-c]quinoline]-14a(5H)-carboxamide]	0.047	5.16	–	–
COc1cccc(N[C@H]2CCCCC/C=C\[C@@H]3C[C@@]3(C(=O)NS(=O)(=O)C3(C)CC3)NC(=O)[C@@H]3C[C@]4(CCc5c(c(C)nc6ccccc56)O4)CN3C2=O)n1 [Example 415, (2R,6S,12Z,13aS,14aR,16aS)-6-[(6-methoxypyridin-2-yl)amino]-5′-methyl-N-[(1-methylcyclopropyl)sulfonyl]-5,16-dioxo-1,1′,2′,6,7,8,9,10,11,13a,14,15,16,16a-tetradecahydrospiro[cyclopropa[e]pyrrolo[1,2-a][1,4]diazacyclopentadecine-2,3′-pyrano[2,3-c]quinoline]-14a(5H)-carboxamide]	0.118	16.3	–	–
Cc1ccc2nc(C(F)(F)F)c3c(c2c1)CC[C@]1(C[C@H]2C(=O)N[C@]4(C(=O)NS(=O)(=O)C5(C)CC5)C[C@H]4/C=C\CCCCC[C@H](NC(=O)OCCN4CCCC4)C(=O)N2C1)O3 [Example 416, 2-(pyrrolidin-1-yl)ethyl [(2R,6S,12Z,13aS,14aR,16aS)-9′-methyl-14a-{[(1-methylcyclopropyl)sulfonyl]carbamoyl}-5,16-dioxo-5′-(trifluoromethyl)-1,1′,2′,5,6,7,8,9,10,11,13a,14,14a,15,16,16a-hexadecahydrospiro[cyclopropa[e]pyrrolo[1,2-a][1,4]diazacyclopentadecine-2,3′-pyrano[2,3-c]quinolin]-6-yl]carbamate]	0.164	272	–	–
Cc1ccc2nc(C(F)(F)F)c3c(c2c1)CC[C@]1(C[C@H]2C(=O)N[C@]4(C(=O)NS(=O)(=O)C5(C)CC5)C[C@H]4/C=C\CCCCC[C@H](NC(=O)OCCN4CCCCC4)C(=O)N2C1)O3 [Example 417, 2-(piperidin-1-yl)ethyl [(2R,6S,12Z,13aS,14aR,16aS)-9′-methyl-14a-{[(1-methylcyclopropyl)sulfonyl]carbamoyl}-5,16-dioxo-5′-(trifluoromethyl)-1,1′,2′,5,6,7,8,9,10,11,13a,14,14a,15,16,16a-hexadecahydrospiro[cyclopropa[e]pyrrolo[1,2-a][1,4]diazacyclopentadecine-2,3′-pyrano[2,3-c]quinolin]-6-yl]carbamate]	0.094	45.3	–	–
Cc1nc2ccc(OCCN3CCOCC3)cc2c2c1O[C@]1(CC2)C[C@H]2C(=O)N[C@]3(C(=O)NS(=O)(=O)C4(C)CC4)C[C@H]3/C=C\CCCCC[C@H](NC(=O)OC(C)(C)C)C(=O)N2C1 [Example 418, tert-butyl {(2R,6S,12Z,13aS,14aR,16aS)-5′-methyl-14a-{[(1-methylcyclopropyl)sulfonyl]carbamoyl}-9′-[2-(morpholin-4-yl)ethoxy]-5,16-dioxo-1,1′,2′,5,6,7,8,9,10,11,13a,14,14a,15,16,16a-hexadecahydrospiro[cyclopropa[e]pyrrolo[1,2-a][1,4]diazacyclopentadecine-2,3′-pyrano[2,3-c]quinolin]-6-yl}carbamate]	0.008	6.24	–	–
COc1ccc2nc(C(C)C)c3c(c2c1)[C@H](F)C[C@]1(C[C@H]2C(=O)N[C@]4(C(=O)NS(=O)(=O)C5(C)CC5)C[C@H]4/C=C\CCCCC[C@H](NC(=O)O[C@@H](C)C(C)C)C(=O)N2C1)O3 [Example 419, (2S)-3-methylbutan-2-yl [(1′R,2S,6S,12Z,13aS,14aR,16aS)-1′-fluoro-9′-methoxy-14a-{[(1-methylcyclopropyl)sulfonyl]carbamoyl}-5,16-dioxo-5′-(propan-2-yl)-1,1′,2′,5,6,7,8,9,10,11,13a,14,14a,15,16,16a-hexadecahydrospiro[cyclopropa[e]pyrrolo[1,2-a][1,4]diazacyclopentadecine-2,3′-pyrano[2,3-c]quinolin]-6-yl]carbamate]	–	–	0.038	1.75
CC[C@@H](C)OC(=O)N[C@H]1CCCCC/C=C\[C@@H]2C[C@@]2(C(=O)NS(=O)(=O)C2(C)CC2)NC(=O)[C@@H]2C[C@]3(CCc4c(c(C5CC5)nc5ccc(OC)cc45)O3)CN2C1=O [Example 420, (2R)-butan-2-yl [(2R,6S,12Z,13aS,14aR,16aS)-5′-cyclopropyl-9′-methoxy-14a-{[(1-methylcyclopropyl)sulfonyl]carbamoyl}-5,16-dioxo-1,1′,2′,5,6,7,8,9,10,11,13a,14,14a,15,16,16a-hexadecahydrospiro[cyclopropa[e]pyrrolo[1,2-a][1,4]diazacyclopentadecine-2,3′-pyrano[2,3-c]quinolin]-6-yl]carbamate]	–	–	0.011	1.25
CC[C@H](C)OC(=O)N[C@H]1CCCCC/C=C\[C@@H]2C[C@@]2(C(=O)NS(=O)(=O)C2(C)CC2)NC(=O)[C@@H]2C[C@]3(CCc4c(c(C5CC5)nc5ccc(OC)cc45)O3)CN2C1=O [Example 421, (2S)-butan-2-yl [(2R,6S,12Z,13aS,14aR,16aS)-5′-cyclopropyl-9′-methoxy-14a-{[(1-methylcyclopropyl)sulfonyl]carbamoyl}-5,16-dioxo-1,1′,2′,5,6,7,8,9,10,11,13a,14,14a,15,16,16a-hexadecahydrospiro[cyclopropa[e]pyrrolo[1,2-a][1,4]diazacyclopentadecine-2,3′-pyrano[2,3-c]quinolin]-6-yl]carbamate]	0.024	1.72	–	–
COc1ccc2nc(C(F)(F)F)c3c(c2c1)CC[C@]1(C[C@H]2C(=O)N[C@]4(C(=O)NS(=O)(=O)C5(C)CC5)C[C@H]4/C=C\CCCCC[C@H](NC(=O)OC4(C)COC4)C(=O)N2C1)O3 [Example 422, 3-methyloxetan-3-yl [(2R,6S,12Z,13aS,14aR,16aS)-9′-methoxy-14a-{[(1-methylcyclopropyl)sulfonyl]carbamoyl}-5,16-dioxo-5′-(trifluoromethyl)-1,1′,2′,5,6,7,8,9,10,11,13a,14,14a,15,16,16a-hexadecahydrospiro[cyclopropa[e]pyrrolo[1,2-a][1,4]diazacyclopentadecine-2,3′-pyrano[2,3-c]quinolin]-6-yl]carbamate]	–	–	0.008	3.14
Cc1ccc2nc(C(F)(F)F)c3c(c2c1)CC[C@]1(C[C@H]2C(=O)N[C@]4(C(=O)NS(=O)(=O)C5(C)CC5)C[C@H]4/C=C\CCCCC[C@H](NC(=O)OCCCN4CCCCC4)C(=O)N2C1)O3 [Example 423, 3-(piperidin-1-yl)propyl [(2R,6S,12Z,13aS,14aR,16aS)-9′-methyl-14a-{[(1-methylcyclopropyl)sulfonyl]carbamoyl}-5,16-dioxo-5′-(trifluoromethyl)-1,1′,2′,5,6,7,8,9,10,11,13a,14,14a,15,16,16a-hexadecahydrospiro[cyclopropa[e]pyrrolo[1,2-a][1,4]diazacyclopentadecine-2,3′-pyrano[2,3-c]quinolin]-6-yl]carbamate]	0.048	19	–	–
